Among the test systems are MDA-N; UO-31; M14; HT-29; TK-10; ACHN; SR; OVCAR-5; SF-295; SF-268; HOP-62; KM12; SN12C; NCI-H23; T47D; BT-549; SNB-75; SK-MEL-28; CAKI-1; IGROV-1.
Common to all, as to assay: DTP human tumour cell line panel, 48 h

The results in this text go back to ChEMBL document CHEMBL1201862, “PubChem BioAssay data set” (2004).

As usually defined, the GI50 is the concentration that inhibits growth by half.

SMILES strings stand for the structures.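 Values below derive from 48-hour exposures of cells grown in 96-well plates, with endpoints linearly interpolated between the two concentrations bracketing the appropriate inhibition level. GI50 is the concentration that inhibits growth by half.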 Calls of active or inactive are those of the source. Cut-off read from the data, not from the text of the source: active = GI50 up to about 1.1 µM and inactive = higher.

In the case of `CCOP(=O)(OCC)/C(C#N)=C/c1nccn1C`, the GI50 in the experiment with MDA-N, in the experiment on UO-31, in the experiment on M14, in the experiment with HT-29, in the experiment on TK-10 and in the experiment with ACHN was > 100 µM (inactive) throughout. The GI50 in the experiment on SR, in the experiment on OVCAR-5, in the experiment with SF-295, in the experiment with SF-268, in the experiment on HOP-62 and in the experiment on KM12 was > 100 µM (inactive) in each case. For the same compound, the GI50 in the experiment with SN12C, with NCI-H23, with T47D, in the experiment on BT-549, with SNB-75 and in the experiment with SK-MEL-28 was > 100 µM (inactive) in each case.

`COc1cc(-c2oc3c(OC)c(O)c(OC)c(O)c3c(=O)c2OC)ccc1O`: the GI50 was 48.1 µM (inactive) in the experiment on MDA-N; 24.8 µM (inactive) with CAKI-1; 31.6 µM (inactive) with UO-31; 10.4 µM (inactive) with M14; 68.1 µM (inactive) with HT-29; 31.3 µM (inactive) with TK-10. For the same compound, the GI50 was 41.9 µM (inactive) in the experiment on ACHN; 41.5 µM (inactive) in the experiment with SR; > 100 µM (inactive) with OVCAR-5; 44.9 µM (inactive) in the experiment with SF-295; 23.1 µM (inactive) in the experiment on HOP-62; > 100 µM (inactive) in the experiment on KM12. For the same compound, the GI50 in the experiment on SN12C was 59.8 µM (inactive); in the experiment with IGROV-1, 25.4 µM (inactive); with NCI-H23 it was 52.4 µM (inactive); in the experiment on T47D, 20.3 µM (inactive); in the experiment with BT-549, 37.9 µM (inactive); in the experiment with SK-MEL-28, 56.8 µM (inactive).

Turning to `NC1=NCCN1CC(=O)O` [CYCLOCREATINE], the GI50 in the experiment on MDA-N is > 10000 µM (inactive); with CAKI-1, > 10000 µM (inactive); in the experiment with UO-31 it was > 1000 µM (inactive); in the experiment with M14 it was > 1000 µM (inactive); with HT-29, > 1000 µM (inactive); in the experiment on TK-10, > 1000 µM (inactive). The GI50 in the experiment with ACHN was > 1000 µM (inactive); in the experiment with SR it was > 1000 µM (inactive); with OVCAR-5 it was > 1000 µM (inactive); in the experiment on SF-295, > 10000 µM (inactive); in the experiment on SF-268, 4990 µM (inactive); with HOP-62, > 1000 µM (inactive). The GI50 with KM12 is > 10000 µM (inactive); with SN12C, > 1000 µM (inactive); with IGROV-1, > 1000 µM (inactive); with NCI-H23 it was > 1000 µM (inactive); in the experiment with T47D, > 1000 µM (inactive); in the experiment on BT-549, > 1000 µM (inactive). Besides, the GI50 with SK-MEL-28 was > 1000 µM (inactive).

Regarding `CN1CCN(C(=S)N(C(=O)c2cccs2)C2CCCCC2)CC1`, the GI50 in the experiment on MDA-N, in the experiment on UO-31, in the experiment on M14, in the experiment with HT-29, with TK-10 and in the experiment with ACHN was > 100 µM (inactive) in each case. The GI50 was > 100 µM (inactive) with SR; > 100 µM (inactive) in the experiment on OVCAR-5; > 10 µM (inactive) in the experiment with SF-295; > 100 µM (inactive) in the experiment on SF-268; > 100 µM (inactive) with KM12; > 100 µM (inactive) with SN12C. For the same compound, the GI50 was > 100 µM (inactive) in the experiment on IGROV-1; > 100 µM (inactive) in the experiment on NCI-H23; > 100 µM (inactive) in the experiment with T47D; > 100 µM (inactive) in the experiment on BT-549; 89.9 µM (inactive) with SNB-75; > 100 µM (inactive) in the experiment on SK-MEL-28.

In the case of `O=C1c2c(O)cccc2Cc2cc(CO)cc(O)c21`, the GI50 is 2.74 µM (inactive) with MDA-N; 1.89 µM (inactive) with UO-31; 2.31 µM (inactive) with M14; 3.48 µM (inactive) with HT-29; 4.08 µM (inactive) with TK-10; 2.94 µM (inactive) in the experiment with ACHN. For the same compound, the GI50 in the experiment with SR was 2.82 µM (inactive); in the experiment with OVCAR-5, 4.02 µM (inactive); in the experiment with SF-295, 1.52 µM (inactive); with SF-268 it was 2.05 µM (inactive); in the experiment on HOP-62 it was 3.01 µM (inactive); with SN12C, 3.38 µM (inactive). Besides, the GI50 is 4.03 µM (inactive) with IGROV-1; 1.85 µM (inactive) in the experiment with NCI-H23; 2.96 µM (inactive) with T47D; 2.01 µM (inactive) in the experiment on BT-549; 1.05 µM (active) in the experiment with SNB-75; 3.96 µM (inactive) in the experiment on SK-MEL-28.

With `CCCCCCCCCCCCCCCCS(=O)(=O)c1ccc(NN)cc1`, the GI50 in the experiment with MDA-N, in the experiment with CAKI-1, with M14, in the experiment on HT-29, in the experiment with TK-10 and with ACHN was > 10 µM (inactive) each time. Moreover, the GI50 is 2.77 µM (inactive) in the experiment on SR; > 10 µM (inactive) in the experiment on OVCAR-5; > 10 µM (inactive) in the experiment on SF-295; 9.38 µM (inactive) with SF-268; > 10 µM (inactive) in the experiment with HOP-62; > 10 µM (inactive) in the experiment on KM12. Besides, the GI50 with SN12C was > 10 µM (inactive); with IGROV-1 it was > 10 µM (inactive); in the experiment with NCI-H23 it was 4.88 µM (inactive); in the experiment on T47D it was > 10 µM (inactive); in the experiment with BT-549, > 10 µM (inactive); in the experiment with SK-MEL-28 it was > 10 µM (inactive).

For the compound `O=C1CSC(c2cccc(Cl)c2)N1c1ccc(-n2c(-c3ccccc3)nc3ccccc3c2=O)cc1` (stereo not given), the GI50 in the experiment with MDA-N is > 100 µM (inactive); in the experiment with CAKI-1, 45.3 µM (inactive); in the experiment with UO-31, 3.22 µM (inactive); in the experiment on HT-29 it was 97.7 µM (inactive); in the experiment on TK-10, > 100 µM (inactive); in the experiment with ACHN, 79.3 µM (inactive). The GI50 was 7.66 µM (inactive) in the experiment with SR; > 100 µM (inactive) in the experiment with OVCAR-5; > 100 µM (inactive) with SF-295; 8.07 µM (inactive) with SF-268; > 100 µM (inactive) with HOP-62; 21.3 µM (inactive) in the experiment on KM12. Besides, the GI50 is > 100 µM (inactive) with SN12C; 59.2 µM (inactive) in the experiment with IGROV-1; > 100 µM (inactive) with NCI-H23; 10 µM (inactive) in the experiment with T47D; 9.98 µM (inactive) with BT-549; > 100 µM (inactive) with SK-MEL-28.

As for `CN(C)/C=N/CCN1CCOCC1`, the GI50 with MDA-N, in the experiment with UO-31, with M14, with HT-29, in the experiment on TK-10 and with ACHN was > 100 µM (inactive) in each case. Further, the GI50 with SR, with OVCAR-5, in the experiment on SF-295, in the experiment on SF-268, in the experiment with HOP-62 and in the experiment with SN12C was > 100 µM (inactive) in each case. The GI50 was > 100 µM (inactive) in the experiment on IGROV-1; > 100 µM (inactive) in the experiment on NCI-H23; > 100 µM (inactive) in the experiment with T47D; > 100 µM (inactive) in the experiment on BT-549; 97.7 µM (inactive) in the experiment on SNB-75; 57.3 µM (inactive) in the experiment on SK-MEL-28.
